For 22 compounds, Ki results are on record in ChEMBL document CHEMBL5252590, “Structure-based design of novel melanin-concentrating hormone receptor-1 ligands based on saturated nitrogen-containing heterocycles” (Bioorg Med Chem Lett, 2023).

A short description of the first experiment: Displacement of [125I]MCH from MCHR1 expressed in CHO cell membranes assessed as inhibition constant. Set-up: species or system Cricetulus griseus, Membrane.
Conditions: not given; call rule not given here
In general terms: Displacement assays read how much labelled ligand stays bound in the presence of the test substance.
Turning to `O=C(c1ccc(-c2ccccc2)cc1)N1CCCC12CCCN(Cc1ccc3ccccc3c1)C2` (configuration not stated), the inhibition constant Ki (as a rule, the equilibrium dissociation constant of an inhibitor or competing ligand from its target) was “Not Active”.

Staying with this experiment, now noted: read-out: Ki.
As to `COc1cc(OC)cc(C(=O)N[C@@H]2CCN(C/C=C/c3ccccc3)C2)c1`, the Ki came out at 17 nM.
Take `COc1cc(OC)cc(C(=O)N[C@@H]2CCN(Cc3ccc4ccccc4c3)C2)c1`: the Ki was found to be 7 nM.
Still for that read-out and setting: the result for `O=C(N[C@@H]1CCN(Cc2ccc3ccccc3c2)C1)c1ccc(F)c(Cl)c1` reads 136 nM; that for `O=C(/C=C/c1ccc(F)cc1)N[C@@H]1CCN(Cc2ccc3ccccc3c2)C1`, 936 nM.
On to `O=C(N[C@@H]1CCN(Cc2ccc3ccccc3c2)C1)c1ccc(F)c(F)c1`, for which the inhibition constant (Ki) is 208 nM.
On the same count and under the same terms, the same measure for `O=C(c1ccc(F)c(Cl)c1)N1CCC2(CCCN(Cc3ccc4c(c3)OCO4)C2)C1` (configuration not stated): 2500 nM; for `O=C(COc1ccc(Cl)cc1)N1CCC2(CCCN(Cc3ccc4c(c3)OCO4)C2)C1` (configuration not stated): 2560 nM.
Still for that read-out and setting: the same measure for `Cc1ccc2c(C)c(C(=O)N[C@@H]3CCN(Cc4ccc5ccccc5c4)C3)oc2c1`: 2640 nM; for `COc1cc(OC)cc(C(=O)N[C@@H]2CCN(Cc3ccc4c(c3)OCO4)C2)c1`: 61.8 nM; for `O=C(N[C@@H]1CCN(Cc2ccc3ccccc3c2)C1)c1ccc(Br)cc1`: 103 nM.
Still for that read-out and setting: the same measure for `O=C(N[C@@H]1CCN(Cc2ccc3ccccc3c2)C1)c1ccc(-c2ccc(C(F)(F)F)cc2)s1`: 3080 nM; for `O=C(N[C@@H]1CCN(Cc2ccc3ccccc3c2)C1)c1ccccc1`: 448 nM; for `O=C(COc1ccc(Cl)cc1)N[C@@H]1CCN(Cc2ccc3ccccc3c2)C1`: 271 nM.
For the compound `COc1cc(NC(=O)CC2CCCN(Cc3ccc4ccccc4c3)C2)cc(OC)c1` (configuration not stated), the Ki came out at 1690 nM.
The same measure, in the same setting: the same measure for `COc1cccc(-c2ccc(C(=O)N[C@@H]3CCN(Cc4ccc5ccccc5c4)C3)cc2)c1`: 4190 nM.
Still for that read-out and setting: the same measure for `COc1cc(OC)cc(C(=O)N2CCC3(CCCN(Cc4ccc5ccccc5c4)C3)C2)c1` (configuration not stated): 330 nM.
Turning to `O=C(N[C@@H]1CCN(Cc2ccc3ccccc3c2)C1)c1ccc(-c2ccc(F)cc2)cc1`, the Ki amounted to 1840 nM.
As for `O=C(COc1ccc(Cl)cc1)N1CCCC12CCCN(Cc1ccc3ccccc3c1)C2` (configuration not stated), the Ki came out at 2610 nM.
Same read-out and setting: the same measure for `O=C(c1ccc(F)c(F)c1)N1CCC2(CCCN(Cc3ccc4ccccc4c3)C2)C1` (configuration not stated): 1900 nM.
Take `COc1cc(OC)cc(C(=O)NC[C@H]2CCN(Cc3ccc4ccccc4c3)C2)c1`: the Ki came out at 105 nM.
On the same count and under the same terms, the same measure for `O=C(N[C@@H]1CCN(Cc2ccc3ccccc3c2)C1)c1ccc(Br)s1`: 202 nM.
